Test results from PMC5224920, “Assessing the mechanism and therapeutic potential of modulators of the human Mediator complex-associated protein kinases” (eLife, 2016).

System: 12 single or co-culture in vitro tissue models of primary cells
Experiment: Culture/co-culture cell model panel, extracellular biomarkers (DiscoveRx); on CCL2/MCP-1: reference of the scale not given here; on CD38: reference of the scale not given here; on CD40: reference of the scale not given here; on CD69: reference of the scale not given here; on CXCL8/IL-8: reference of the scale not given here; on CXCL9/MIG: reference of the scale not given here; on IL-1alpha: reference of the scale not given here; on M-CSF: reference of the scale not given here; on PBMC Cytotoxicity: reference of the scale not given here
Format: cell-based, human
[1] = /Mphg Huvec+macrophages, 1.00E4 nM
[2] = /Mphg Huvec+macrophages, 1.11E3 nM
[3] = /Mphg Huvec+macrophages, 1.23E2 nM
[4] = /Mphg Huvec+macrophages, 1.37E1 nM
[5] = /Mphg Huvec+macrophages, 3.33E3 nM
[6] = /Mphg Huvec+macrophages, 3.70E2 nM
[7] = /Mphg Huvec+macrophages, 4.12E1 nM
[8] = /Mphg Huvec+macrophages, 4.57E0 nM

Cc1n[nH]c2ncc(C(=O)N3CCC[C@H]3c3ccc(Cl)cc3)cc12 [CMPD4]
Collagen I (/HDFNo, 4.57E0 nM): -0.029
Collagen III (/HDFNo, 4.57E0 nM): 0.064
CCL2/MCP-1 [1]: -0.014
CCL3/MIP-1alpha [1]: 0.020
CD40 [1]: 0.064
CD62E/E-Selectin [1]: -0.080
CD69 [1]: 0.239
CD106/VCAM-1 [1]: 0.005
CXCL8/IL-8 [1]: 0.133
IL-1alpha [1]: -0.065
M-CSF [1]: 0.054
SRB [1]: -0.016
SRB-Mphg [1]: 0.00054
sIL-10 [1]: -0.061
CCL2/MCP-1 [2]: -0.111
CCL3/MIP-1alpha [2]: -0.011
CD40 [2]: 0.027
CD62E/E-Selectin [2]: -0.087
CD69 [2]: 0.187
CD106/VCAM-1 [2]: -0.0013
CXCL8/IL-8 [2]: 0.008
IL-1alpha [2]: -0.048
M-CSF [2]: -0.024
SRB [2]: -0.010
SRB-Mphg [2]: -0.020
sIL-10 [2]: -0.122
CCL2/MCP-1 [3]: -0.109
CCL3/MIP-1alpha [3]: 0.015
CD40 [3]: -0.002
CD62E/E-Selectin [3]: -0.108
CD69 [3]: 0.181
CD106/VCAM-1 [3]: 0.017
CXCL8/IL-8 [3]: 0.014
IL-1alpha [3]: -0.049
M-CSF [3]: -0.028
SRB [3]: -0.00948
SRB-Mphg [3]: 0.00118
sIL-10 [3]: -0.100
CCL2/MCP-1 [4]: -0.054
CCL3/MIP-1alpha [4]: 0.000182
CD40 [4]: -0.054
CD62E/E-Selectin [4]: -0.144
CD69 [4]: 0.083
CD106/VCAM-1 [4]: 0.0075
CXCL8/IL-8 [4]: 0.000538
IL-1alpha [4]: -0.006
M-CSF [4]: -0.041
SRB [4]: -0.007
SRB-Mphg [4]: 0.004
sIL-10 [4]: 0.023
CCL2/MCP-1 [5]: -0.091
CCL3/MIP-1alpha [5]: -9.82e-5
CD40 [5]: 0.039
CD62E/E-Selectin [5]: -0.094
CD69 [5]: 0.200
CD106/VCAM-1 [5]: 0.025
CXCL8/IL-8 [5]: 0.043
IL-1alpha [5]: -0.044
M-CSF [5]: -0.021
SRB [5]: -0.013
SRB-Mphg [5]: 0.00473
sIL-10 [5]: -0.159
CCL2/MCP-1 [6]: -0.110
CCL3/MIP-1alpha [6]: -0.009
CD40 [6]: -0.020
CD62E/E-Selectin [6]: -0.094
CD69 [6]: 0.185
CD106/VCAM-1 [6]: 0.027
CXCL8/IL-8 [6]: 0.00143
IL-1alpha [6]: -0.030
M-CSF [6]: -0.017
SRB [6]: -0.005
SRB-Mphg [6]: -0.005
sIL-10 [6]: -0.159
CCL2/MCP-1 [7]: -0.089
CCL3/MIP-1alpha [7]: 0.015
CD40 [7]: -0.055
CD62E/E-Selectin [7]: -0.120
CD69 [7]: 0.131
CD106/VCAM-1 [7]: -0.013
CXCL8/IL-8 [7]: 0.037
IL-1alpha [7]: -0.015
M-CSF [7]: -0.025
SRB [7]: -0.00546
SRB-Mphg [7]: 0.005
sIL-10 [7]: -0.021
CCL2/MCP-1 [8]: -0.005
CCL3/MIP-1alpha [8]: -0.00218
CD40 [8]: -0.087
CD62E/E-Selectin [8]: -0.111
CD69 [8]: 0.012
CD106/VCAM-1 [8]: 0.00354
CXCL8/IL-8 [8]: -0.024
IL-1alpha [8]: 0.018
M-CSF [8]: -0.010
SRB [8]: 0.001
SRB-Mphg [8]: 0.011
sIL-10 [8]: 0.038
CCL2/MCP-1 (/TH2, 1.00E4 nM): -0.115
CCL26/Eotaxin-3 (/TH2, 1.00E4 nM): -0.131
CD38 (/TH2, 1.00E4 nM): -0.035
CD40 (/TH2, 1.00E4 nM): -0.240
CD62E/E-Selectin (/TH2, 1.00E4 nM): 0.049
CD62P/P-selectin (/TH2, 1.00E4 nM): -0.00467
CD69 (/TH2, 1.00E4 nM): -0.006
CD87/uPAR (/TH2, 1.00E4 nM): -0.174
CD106/VCAM-1 (/TH2, 1.00E4 nM): -0.004
CXCL8/IL-8 (/TH2, 1.00E4 nM): -0.049
CXCL9/MIG (/TH2, 1.00E4 nM): -0.021
Collagen IV (/TH2, 1.00E4 nM): 0.028
PBMC Cytotoxicity (/TH2, 1.00E4 nM): -0.00277
SRB (/TH2, 1.00E4 nM): -0.174
sIL-17A (/TH2, 1.00E4 nM): 0.175
sIL-17F (/TH2, 1.00E4 nM): 0.137
CCL2/MCP-1 (/TH2, 1.11E3 nM): -0.084
CCL26/Eotaxin-3 (/TH2, 1.11E3 nM): -0.167
CD38 (/TH2, 1.11E3 nM): -0.006
CD40 (/TH2, 1.11E3 nM): -0.166
CD62E/E-Selectin (/TH2, 1.11E3 nM): 0.083
CD62P/P-selectin (/TH2, 1.11E3 nM): -0.044
CD69 (/TH2, 1.11E3 nM): 0.041
CD87/uPAR (/TH2, 1.11E3 nM): -0.190
CD106/VCAM-1 (/TH2, 1.11E3 nM): 0.034
CXCL8/IL-8 (/TH2, 1.11E3 nM): -0.084
CXCL9/MIG (/TH2, 1.11E3 nM): -0.034
Collagen IV (/TH2, 1.11E3 nM): -0.00538
PBMC Cytotoxicity (/TH2, 1.11E3 nM): -0.052
SRB (/TH2, 1.11E3 nM): -0.084
sIL-17A (/TH2, 1.11E3 nM): 0.045
sIL-17F (/TH2, 1.11E3 nM): 0.003
CCL2/MCP-1 (/TH2, 1.23E2 nM): -0.100
CCL26/Eotaxin-3 (/TH2, 1.23E2 nM): -0.152
CD38 (/TH2, 1.23E2 nM): -0.00143
CD40 (/TH2, 1.23E2 nM): -0.162
CD62E/E-Selectin (/TH2, 1.23E2 nM): 0.078
CD62P/P-selectin (/TH2, 1.23E2 nM): -0.060
CD69 (/TH2, 1.23E2 nM): 0.046
CD87/uPAR (/TH2, 1.23E2 nM): -0.227
CD106/VCAM-1 (/TH2, 1.23E2 nM): 0.025
CXCL8/IL-8 (/TH2, 1.23E2 nM): -0.055
CXCL9/MIG (/TH2, 1.23E2 nM): -0.030
Collagen IV (/TH2, 1.23E2 nM): -0.013
PBMC Cytotoxicity (/TH2, 1.23E2 nM): 0.007
SRB (/TH2, 1.23E2 nM): -0.061
sIL-17A (/TH2, 1.23E2 nM): 0.043
sIL-17F (/TH2, 1.23E2 nM): 0.061
CCL2/MCP-1 (/TH2, 1.37E1 nM): -0.029
CCL26/Eotaxin-3 (/TH2, 1.37E1 nM): -0.152
CD38 (/TH2, 1.37E1 nM): 0.015
CD40 (/TH2, 1.37E1 nM): -0.156
CD62E/E-Selectin (/TH2, 1.37E1 nM): 0.024
CD62P/P-selectin (/TH2, 1.37E1 nM): -0.040
CD69 (/TH2, 1.37E1 nM): 0.016
CD87/uPAR (/TH2, 1.37E1 nM): -0.193
CD106/VCAM-1 (/TH2, 1.37E1 nM): 0.020
CXCL8/IL-8 (/TH2, 1.37E1 nM): -0.050
CXCL9/MIG (/TH2, 1.37E1 nM): 0.013
Collagen IV (/TH2, 1.37E1 nM): 0.018
PBMC Cytotoxicity (/TH2, 1.37E1 nM): -0.060
SRB (/TH2, 1.37E1 nM): -0.037
sIL-17A (/TH2, 1.37E1 nM): -0.008
sIL-17F (/TH2, 1.37E1 nM): 0.096
CCL2/MCP-1 (/TH2, 3.33E3 nM): -0.125
